The values that follow come from US8524257B2, “Menthol-containing solids composition” (Symrise AG, priority 2005, dated 2013).

Data set [1] in a line: Dissolving test in ethanol/water, time to complete dissolution. In kind it is physicochemical. As to conditions: 5 g in 95 g ethanol/water (equal parts by weight), 20° C., stirred, visual determination. Here is the method: The different rates of dissolution of a solids composition according to the invention of Example 1a above and of forms of l-menthol that are not in accordance with the invention were compared.
To this end, 5 g of l-menthol or 5 g of the l-menthol-containing solids composition according to the invention of Example 1a were added to 95 g of a mixture, kept at a constant temperature of 20° C., of equal parts by weight of ethanol and water, and the time taken for the menthol or the menthol-containing solids composition to dissolve completely (visual determination) was calculated.
The dissolving test was carried out in a glass beaker having a diameter of 5 cm and a filling height of 7 cm. The contents of the glass beaker were stirred during the dissolving test in each case using a magnetic stirring bead having a length of 4 cm with a magnetic stirrer speed of 4 revolutions per second. The temperature was monitored with a Pt-100 thermometer which was immersed to a depth of 5 cm in the liquid, was located at a distance of 1 cm from the wall of the glass beaker and at the same time served as flow breaker.
The size of the crystals corresponded to the typical (commercial) crystal geometry of natural l-menthol.

The conditions of data set [2]: cited from earlier work.

Molecules are shown by their SMILES.

Take `CC(C)[C@@H]1CC[C@@H](C)C[C@H]1O` [Menthol pellets according to WO 03/101924, Example 1] [l-menthol]: in data set [1], the “Time to complete dissolution” value was determined as 504 s.

In the case of `CC1CCC(C(C)C)C(O)C1` (stereo not drawn) [menthol pressed articles, menthol], the clumping and caking result in data set [2] (stored for prolonged periods of over three months) is “gradually clump and cake together”. `CC(C)[C@@H]1CC[C@@H](C)C[C@H]1O` [Clumped menthol crystals, l-menthol]: the “Time to complete dissolution” value in data set [1] was 280 s.

As to `CC(C)[C@@H]1CC[C@@H](C)C[C@H]1O` [Menthol crystals from Example 1, l-menthol], the “Time to complete dissolution” value in data set [1] worked out at 170 s.

On to `CC(C)[C@@H]1CC[C@@H](C)C[C@H]1O` [flaked l-menthol, l-menthol], for which, in data set [2] (after 24 hours, as described in U.S. Pat. No. 3,064,311), the adhesion and clumping result was “adhesion and clumping of the flakes”.

In the case of `CC(C)[C@@H]1CC[C@@H](C)C[C@H]1O` [Crystals of natural menthol, l-menthol], the “Time to complete dissolution” value in data set [1] amounted to 255 s.
